Where two headings read alike, the source gives them in different places. Marks after values point to notes of the source that are not given here.
Tests used:
HCT116 cells [1] = assay: Screen for potentiation of DNA damaging agents (MMS, camptothecin, cis-platinum, 3 aminobenzamide, ionizing radiation); assay type: cell-based, human; conditions: 1 = no sensitization; for MMS: Ratios of IC50 HCT116: compound alone vs combination with MMS (100 μM)
Excerpt: The 192 human DNA ligase inhibitors were screened in parallel for effects on proliferation and the ability to potentiate the effects of several DNA damaging agents using two cell human lines, a colon cancer line HCT116 and a normal breast epithelial cell line MCF10A using a Biomek FX Laboratory Automation Workstation as described (23). The DNA damaging agents used, methyl methanesulfonate (MMS), camptothecin, cis-platinum, 3 aminobenzamide and ionizing radiation, are representatives of classes of agents used to treat cancer. Briefly, HCT116 and MCF10A cells were plated in 96 well plates such that the cultures were about 80% confluent after 5 days incubation. Compounds were added to the cultures at either 15 μM or 50 μM 1 day after plating. After incubation for 3 days, cell lysed in a solution containing 1.2% Igepal CA-630 and SYBR green that stains DNA (1:1000, Molecular Probes, Eugene, Oreg.). Subsequently, fluorescence was measured per well. The studies with DNA damaging agents were performed as follows. […] For ionizing radiation, cells were pre-incubated with the compounds at 50 μM for 1 hour prior to exposure to 2 gray of ionizing radiation. Cultures were incubated for 3 days and then treated as above.

MCF10A cells [2] = assay: as above; assay type: cell-based, human; conditions: compound alone vs combination with 3-AB (2 mM); 1 = no sensitization
Excerpt: The 192 human DNA ligase inhibitors were screened in parallel for effects on proliferation and the ability to potentiate the effects of several DNA damaging agents using two cell human lines, a colon cancer line HCT116 and a normal breast epithelial cell line MCF10A using a Biomek FX Laboratory Automation Workstation as described (23). The DNA damaging agents used, methyl methanesulfonate (MMS), camptothecin, cis-platinum, 3 aminobenzamide and ionizing radiation, are representatives of classes of agents used to treat cancer. Briefly, HCT116 and MCF10A cells were plated in 96 well plates such that the cultures were about 80% confluent after 5 days incubation. Compounds were added to the cultures at either 15 μM or 50 μM 1 day after plating. After incubation for 3 days, cell lysed in a solution containing 1.2% Igepal CA-630 and SYBR green that stains DNA (1:1000, Molecular Probes, Eugene, Oreg.). Subsequently, fluorescence was measured per well. The studies with DNA damaging agents were performed as follows. […] Cultures were incubated for 3 days and then treated as above.

human DNA ligase III = target: T1, human DNA ligase III (Homo sapiens, UniProt P49916); assay: High-throughput fluorescence-based DNA joining (ligation) assay; assay type: biochemical; conditions: read-out: % of inhibition @ 100 μM (Helen's data) hLigIII
T1 sequence (P49916 1-862 isoform P49916-4): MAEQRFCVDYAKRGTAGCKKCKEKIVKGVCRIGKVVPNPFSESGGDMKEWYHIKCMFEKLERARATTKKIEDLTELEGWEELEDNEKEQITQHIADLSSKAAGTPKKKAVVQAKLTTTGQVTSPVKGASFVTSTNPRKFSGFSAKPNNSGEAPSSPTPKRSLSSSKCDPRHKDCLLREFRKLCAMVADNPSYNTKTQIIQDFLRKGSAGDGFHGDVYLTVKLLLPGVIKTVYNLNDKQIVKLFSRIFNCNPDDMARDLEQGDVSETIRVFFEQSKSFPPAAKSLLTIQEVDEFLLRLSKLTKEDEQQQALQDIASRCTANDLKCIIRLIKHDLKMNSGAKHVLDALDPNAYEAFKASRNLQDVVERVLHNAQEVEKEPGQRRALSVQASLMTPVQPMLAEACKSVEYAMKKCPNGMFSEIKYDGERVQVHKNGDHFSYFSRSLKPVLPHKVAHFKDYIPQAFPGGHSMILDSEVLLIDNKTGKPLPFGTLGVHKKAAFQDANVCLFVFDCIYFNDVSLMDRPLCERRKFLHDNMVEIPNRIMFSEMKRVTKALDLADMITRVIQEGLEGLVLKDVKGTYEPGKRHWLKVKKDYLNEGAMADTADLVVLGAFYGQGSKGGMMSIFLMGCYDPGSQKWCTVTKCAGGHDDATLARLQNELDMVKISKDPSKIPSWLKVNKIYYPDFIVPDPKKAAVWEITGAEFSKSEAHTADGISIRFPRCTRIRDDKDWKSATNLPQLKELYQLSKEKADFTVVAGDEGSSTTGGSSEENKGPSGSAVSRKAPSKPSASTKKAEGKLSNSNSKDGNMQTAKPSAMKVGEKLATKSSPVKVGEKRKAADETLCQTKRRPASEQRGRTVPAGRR
Excerpt: (§1) The method for screening compounds comprises testing the compound for the ability to inhibit human DNA ligases I, III and IV with a high throughput fluorescence-based ligation assay. In this assay, phosphodiester bond formation covalently links together two oligonucleotides, one of which is a fluorescent donor AF488 that is 11 nucleotides from the 3′ terminus and the other contains a fluorescence acceptor and quencher, BHQ1 that is 15 nucleotides from the 5′ terminus. When these oligonucleotides are present in separate duplexes and in the same nicked or intact duplex, there is no significant quenching of fluorescence because the donor and acceptor are too far apart. As single-strands neither the AF488 oligonucleotide nor the BHQ1 oligonucleotides have significant secondary structure. However, when these oligonucleotides are ligated together, the resultant single strand forms a stable hairpin structure, in which the AF488 and BHQ1 groups are very close together, resulting in efficient intra-molecular quenching of fluorescence. Thus, in the DNA joining assay, the DNA substrate is denatured after incubation with the DNA ligase and then renatured in the presence of a 20-fold excess of an oligonucleotide that is identical to the ligated strand containing the fluorescent door and acceptor except that it lacks these modifications. Using this assay, DNA joining, which results in reduced fluorescence at 518 nm, can be measured rapidly, quantitatively and with high-throughput using a fluorescence plate reader.
(§2) Applicants developed a novel high throughput fluorescence-based ligation assay by modifying the sequence of the oligos to optimize hairpin formation by the single strand ligated product of the high throughput fluorescence-based ligation assay of Chen et al (22). […] Compound stock solutions, which were 10 mM in 0.5% DMSO, were diluted in 0.5% DMSO. Human DNA ligases I and III were assayed with a nicked DNA substrate whereas as the substrate for human DNA ligase IV was two oligonucleotide duplexes with short complementary single strand ends.

human DNA ligase IV = human DNA ligase IV (Homo sapiens, UniProt P49917); assay: as above; assay type: biochemical; conditions: read-out: % of inhibition @ 100 μM (Helen's data) hLigIV
Chain of human DNA ligase IV (P49917 whole entry): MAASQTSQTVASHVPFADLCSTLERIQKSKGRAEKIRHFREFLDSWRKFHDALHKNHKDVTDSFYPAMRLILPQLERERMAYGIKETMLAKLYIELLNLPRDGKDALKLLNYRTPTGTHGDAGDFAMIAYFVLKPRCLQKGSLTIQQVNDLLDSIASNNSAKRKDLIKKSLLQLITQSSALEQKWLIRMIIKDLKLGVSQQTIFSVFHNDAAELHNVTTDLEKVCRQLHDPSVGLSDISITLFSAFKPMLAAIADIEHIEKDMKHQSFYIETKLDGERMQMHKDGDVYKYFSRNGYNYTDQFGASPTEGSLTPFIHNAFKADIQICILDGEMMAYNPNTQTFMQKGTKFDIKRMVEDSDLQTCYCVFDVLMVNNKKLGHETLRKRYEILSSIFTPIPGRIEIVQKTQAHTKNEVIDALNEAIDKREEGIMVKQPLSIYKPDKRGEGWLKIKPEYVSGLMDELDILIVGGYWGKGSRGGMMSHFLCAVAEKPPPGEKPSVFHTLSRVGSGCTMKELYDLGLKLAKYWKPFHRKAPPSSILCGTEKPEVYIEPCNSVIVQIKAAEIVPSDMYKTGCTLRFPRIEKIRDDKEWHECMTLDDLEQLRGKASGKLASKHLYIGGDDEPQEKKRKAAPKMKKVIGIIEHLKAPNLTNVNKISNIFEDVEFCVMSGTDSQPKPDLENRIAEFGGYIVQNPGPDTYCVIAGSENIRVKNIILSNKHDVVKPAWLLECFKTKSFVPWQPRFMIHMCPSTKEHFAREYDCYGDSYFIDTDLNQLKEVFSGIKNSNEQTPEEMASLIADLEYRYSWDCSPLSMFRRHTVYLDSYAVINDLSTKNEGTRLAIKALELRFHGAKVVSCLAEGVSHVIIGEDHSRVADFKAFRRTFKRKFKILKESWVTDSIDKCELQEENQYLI
Chain of human DNA ligase IV (Q13426 whole entry partner): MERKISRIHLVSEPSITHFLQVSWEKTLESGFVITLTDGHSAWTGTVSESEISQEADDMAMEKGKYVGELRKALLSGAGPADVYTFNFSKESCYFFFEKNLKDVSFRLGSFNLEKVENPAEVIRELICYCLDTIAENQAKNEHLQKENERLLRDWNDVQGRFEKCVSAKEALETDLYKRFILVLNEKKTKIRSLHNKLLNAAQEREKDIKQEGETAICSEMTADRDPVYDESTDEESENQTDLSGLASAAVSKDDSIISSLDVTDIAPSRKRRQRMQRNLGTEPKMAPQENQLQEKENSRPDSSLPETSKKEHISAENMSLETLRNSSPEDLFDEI
Excerpt: as §1, §2

HCT116 cells [3] = assay: MTT cell growth assay; assay type: cell-based, human; conditions: Homo sapiens, HCT-116
Procedure: (§3) The activity of hits from the initial screen was further validated using the MTT assay. Briefly, MCF10A and HCT116 cells were seeded in 96 well plates at 300 and 1200 cells per well, respectively, and allowed to adhere overnight. The following day, serial dilutions of compounds in media were added to the cells in a final volume 200 μl. After incubation for 5 days, MTT reagent (3-(4,5-dimthylthiazol-2-yl)-2,5-diphenyltatrazolium) was added and incubation was continued for 4 h. Formazan crystals generated by reduction of the MTT reagent in mitochondria were solubilized with isopropanol prior to the measurement of absorbance at 560 nm wavelength in a plate reader.
After incubation for 5 days, cell growth was measured by the MTT assay (16).

hLigI = target: T2, hLigI (Homo sapiens, UniProt P18858); assay: High-throughput fluorescence-based DNA joining (ligation) assay; assay type: biochemical; conditions: read-out: % of inhibition @ 100 μM (Helen's data) hLigI
T2 construct: made in house
T2 sequence (P18858 whole entry): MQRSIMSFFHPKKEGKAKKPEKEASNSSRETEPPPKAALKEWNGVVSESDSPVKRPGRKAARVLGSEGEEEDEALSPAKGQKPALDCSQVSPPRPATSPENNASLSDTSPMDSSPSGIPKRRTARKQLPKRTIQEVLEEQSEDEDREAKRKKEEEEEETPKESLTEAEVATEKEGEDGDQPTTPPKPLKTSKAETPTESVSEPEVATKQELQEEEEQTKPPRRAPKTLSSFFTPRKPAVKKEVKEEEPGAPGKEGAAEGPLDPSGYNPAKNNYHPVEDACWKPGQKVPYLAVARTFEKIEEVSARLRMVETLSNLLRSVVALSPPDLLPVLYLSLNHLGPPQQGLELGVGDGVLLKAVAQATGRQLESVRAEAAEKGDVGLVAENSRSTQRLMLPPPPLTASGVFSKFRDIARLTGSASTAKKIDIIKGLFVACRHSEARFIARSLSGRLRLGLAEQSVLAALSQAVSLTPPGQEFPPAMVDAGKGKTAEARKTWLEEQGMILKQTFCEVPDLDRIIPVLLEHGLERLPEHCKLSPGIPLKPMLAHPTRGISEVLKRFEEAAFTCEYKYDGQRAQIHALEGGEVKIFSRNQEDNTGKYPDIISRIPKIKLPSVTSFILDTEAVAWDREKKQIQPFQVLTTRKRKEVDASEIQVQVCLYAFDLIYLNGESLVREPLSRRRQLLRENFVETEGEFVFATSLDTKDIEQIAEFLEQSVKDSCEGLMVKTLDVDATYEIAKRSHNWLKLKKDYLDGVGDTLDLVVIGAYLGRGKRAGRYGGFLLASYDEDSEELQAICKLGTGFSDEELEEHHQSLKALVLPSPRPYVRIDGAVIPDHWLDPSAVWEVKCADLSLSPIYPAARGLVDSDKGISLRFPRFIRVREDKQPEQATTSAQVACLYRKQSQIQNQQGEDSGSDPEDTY
Procedure: Candidate ligase inhibitors identified by CADD were assayed for their ability to inhibit hLigI and T4 DNA ligase using a high-throughput, fluorescence energy transfer-based DNA joining assay (22). Duplicate reactions (30 μL) containing 10 pmol of nicked DNA substrate and either 0.25 pmol of hLigI or 10 units of T4 DNA ligase were incubated in the presence or absence of 100 μmol/L of the putative inhibitor. DNA binding by the candidate DNA ligase inhibitors was measured by displacement of ethidium bromide from DNA as previously described (30).
as §1, §2

MCF10A cells [4] = assay: MTT cell growth assay; assay type: cell-based, human; conditions: Homo sapiens, MCF-10A; sections 'high concentrations (~50 μM)' and 'active in vitro that decreased cell growth'; same figures given in μM elsewhere in Table 6; read-out: IC50 MCF10A (head without unit)
Procedure: as §3
To extend the results of the […] cell culture screening assay, a subset of compounds were tested in larger cultures. Different concentrations of Compounds 67 and 151 were added to asynchronous subconfluent populations of HCT116 and MCF10A cells. Asynchronous subconfluent populations of HCT116 and MCF10A cells were pre-treated with different concentrations of compound 64 prior to the addition of 3 aminobenzamide (2 mM) MMS (100 μM) or cis-platinum (1 μM). After incubation for 5 days, cell growth was measured by the MTT assay (16).

[5] = cell growth, compound alone, read-out: IC50 (μM) HCT116

Row | Structure (SMILES) | IC50 ratios of non- and 3-AB treated cells HCT116 (HCT116 cells [1]; compound alone vs combination with 3-AB (2 mM)) | MMS: Ratios of IC50 HCT116 (HCT116 cells [1]) | IC50 ratios of non- and 3-AB treated cells MCF10A (MCF10A cells [2]) | inhibition at 100 µM (human DNA ligase III) | inhibition at 100 µM (human DNA ligase IV) | IC50 (HCT116 cells [3]; [5]) | inhibition at 100 µM (hLigI) | IC50 (MCF10A cells [4]) | inhibition at 100 µM (human DNA ligase IV; 100 μM) | IC50 (HCT116 cells [3]; sections 'high concentrations (~50 μM)' and 'active in vitro that decreased cell growth', same figures given in μM elsewhere in Table 6, read-out: IC50 HCT116 (head without unit)) | inhibition at 100 µM (hLigI; 100 μM)
1 | O=C1NC(=S)NC(=O)C1=NNc1cccc(C(=O)O)c1 [Compound 198] | 1 | 2** | 2** | < 20% | < 20% | > 50 µM | < 20% | > 50 µM | – | – | –
2 | O=C(COC(=O)c1ccc2ccccc2c1O)c1cccs1 [Compound 214] | – | ID (2) | – | 42% | – | 10 to 50 µM | – | > 50 µM | 40% | 10 to 50 µM | < 20%

— US9757375B2, “Compounds that inhibit human DNA ligases and methods of treating cancer” (University of Maryland, Baltimore, priority 2007, dated 2017)
